Type in all cases: physicochemical
Data set [1] in a line: Co-milling co-crystal screening, XRPD. The settings on record: co-milling with freebase. As for the experimental part:
About 30 mg of Compound (I) freebase and 1.05 eq. of co-former were direct weighed into the milling capsule and manually mixed before the addition of 1 volume of solvent (MtBE, MeOAc, or EtOH). Each system was milled once for 30 seconds before solids were collected. Samples of the wet material were taken for XRPD of the ‘wet’ material before drying under active vacuum at 50° C. for 2 hours. Unique patterns were further exposed to 97% R.H. for 24 hours.

The nature of data set [2]: Co-melting co-crystal screening, XRPD. The note with it: co-melting with pralsetinib freebase, 1.05 eq. co-former. As for the experimental part: The resulting powder was packed into a 100 μL DSC pan and heated at a rate of 10° C./min to 10° C. above the melting temperature of the lowest melting component. The experiment was isothermally held for 5 min before cooling to room temperature at a rate of 10° C./min. Samples were then taken for XRPD.

Data set [3] is described as follows: Dynamic vapor sorption (DVS). The settings on record: for DVS Mass Change: glutarate and succinate: between 2% and 90% relative humidity. As for the experimental part:
Dynamic Vapor Sorption (DVS) was done using a DVS Intrinsic 1. The sample is loaded into a sample pan and suspended from a microbalance. A typical sample mass for DVS measurement is 25 mg. Nitrogen gas bubbled through distilled water provides the desired relative humidity. A typical measurement comprises the steps: • 1—Equilibrate at 50% RH • 2—50% to 2%. (50%, 40%, 30%, 20%, 10% and 2%) • a. Hold minimum of 5 mins and maximum of 60 minutes at each humidity. The pass criteria is less than 0.002% change • 3—2% to 95% (2%, 10%, 20%, 30%, 40%, 50%, 60%, 70%, 80%, 90%, 95%) • a. Hold minimum of 5 mins and maximum of 60 minutes at each humidity. The pass criteria is less than 0.002% change • 4—95% to 2% (95%, 80%, 70%, 60%, 50%, 40%, 30%, 20%, 10%, 2%) • a. Hold minimum of 5 mins and maximum of 60 minutes at each humidity. The pass criteria is less than 0.002% change • 5—2% to 50% (2%, 10%, 20%, 30%, 40%, 50%) • a. Hold minimum of 5 mins and maximum of 60 minutes at each humidity. The pass criteria is less than 0.002% change High Pressure Liquid Chromatography (HPLC)
Dynamic Vapor Sorption (DVS) was performed using a DVS Intrinsic 1. The samples (12-31 mg) was loaded into a sample pan, suspended from a microbalance and exposed to a humidified stream of nitrogen gas. The sample was held for a minimum of 5 min at each level and only progressed to the next humidity level if there was <0.002% change in weight between measurements (interval: 60 seconds) or 240 min had elapsed. The following program was used: • 1—Equilibration at 50% RH • 2—50% to 2%. (50%, 40%, 30%, 20%, 10% and 2%) • 3—2% to 95% (2%, 10%, 20%, 30%, 40%, 50%, 60%, 70%, 80%, 90%, 95%) • 4—95% to 2% (95%, 80%, 70%, 60%, 50%, 40%, 30%, 20%, 10%, 2%) • 5—2% to 50% (2%, 10%, 20%, 30%, 40%, 50%) High Performance Liquid Chromatography (HPLC)

A short description of data set [4]: One week (7 days) slurry stability by XRPD and HPLC. The note with it: for stability slurrying 7 days in EtOAc / stability slurrying 7 days in EtOH / stability slurrying 7 days in EtOH:water (95:5 vol): XRPD and HPLC.
Data set [5] is described as follows: Solubility in water and simulated fluids (fasted/fed state simulated intestinal fluid, fasted state simulated gastric fluid). The settings on record: for solubility: thermodynamic from solid.
Data set [6] can be described thus: Salt screening: XRPD of wet cake, after drying under vacuum at 50° C., after exposure to 97% relative humidity. The note with it: XRPD; for stability of salt solid form to humidification: 97% (>95%) relative humidity; for stability of salt solid form to drying: vacuum at 50° C. As for the experimental part: Stock solutions of counter-ion were prepared in EtOH, MeOH, or EtOAc, depending on solubility. […] The solvent was allowed to evaporate at room temperature over the weekend and then placed at 50° C. under vacuum for 3 hours to remove any remaining solvent. Approximately 25 volumes solvent (0.6 mL) was added to each vial for screening. The three solvents selected were EtOH, EtOAc, and IPA:water (9:1 vol). […] XRPD analysis was done in three stages. XRPD of the wet cake was done for all samples. Unique solids were then left on XRPD plates and dried under vacuum at 50° C. XRPD of unique dry solids was then done. […] The humid environment was generated by placing a beaker of saturated potassium sulfate in water in a sealed container. All XRPD patterns were compared to counter ion XRPD patterns and known free base patterns. Where solids were not of sufficient quantity to isolate, the solvent was evaporated at room temperature, the material dried at 50° C. under active vacuum for 3 hours, and then reslurried at room temperature in either MtBE or IPAc overnight after heating to 45° C. for 30 minutes.

Data set [7] is described as follows: Humidity exposure, 75% relative humidity at 40° C. for one week, XRPD. The settings on record: for stability on exposure to 75% relative humidity at 40° C.: one week / 7 days, XRPD.
Data set [8] can be described thus: Drying of free base solid forms (XRPD). The note with it: for behaviour upon drying: XRPD.

In brackets after ≈: the same amount, converted by molar mass. Like-named read-outs stand apart in the source and are kept apart here.

This is an account of results in US12448366B2, “Solid forms of pralsetinib” (Rigel Pharmaceuticals, Inc., priority 2020, dated 2025).

Take `Nc1ccc(C(=O)O)cc1` [4-Aminobenzoic Acid]: the “Wet (XRPD)” value in data set [1] (solvent EtOH) was “FB-C”; in data set [1] (solvent MtBE, MeOAc), “FB-C + 4-Aminobenzoic”.

Take `O=C(O)c1ccc(O)cc1` [4-Hydroxybenzoic Acid]: in data set [2], the “Dry (XRPD)” value is on record as “Am”. In addition, in data set [1] (solvent MtBE, MeOAc, EtOH), the “Wet (XRPD)” value is listed as “FB-C”.

With `O=C(O)c1ccccc1` [Benzoic Acid], the “Dry (XRPD)” value in data set [2] is “Am”. The “Wet (XRPD)” value in data set [1] (solvent MtBE, MeOAc, EtOH) is on record as “FB-C”.

As for `O=C(O)c1cc(O)ccc1O` [Gentisic Acid], in data set [2], the “Dry (XRPD)” value is “Am”. In addition, in data set [1] (solvent MtBE, MeOAc, EtOH), the “Wet (XRPD)” value is reported as “FB-C”.

In general, solubility refers to the concentration that dissolves in the medium under given conditions. On to `CO[C@]1(C(=O)N[C@@H](C)c2ccc(-n3cc(F)cn3)nc2)CC[C@H](c2nc(C)cc(Nc3cc(C)[nH]n3)n2)CC1` [Solid Form 14-A, pralsetinib], for which, in data set [3], the “hysteresis in the DVS plot” value is given as “minimal hysteresis”. For the same compound, the “mass change by DVS” value in data set [3] (between 2% and 90% relative humidity, listed as solid form 14-A) worked out at 0.94 wt. %; in data set [3] (between 15% and 75% relative humidity, listed as solid form 14-A) it was 0.86 wt. %. Moreover, in data set [3] (listed as Phosphate 14-A), the “DVS Mass Change” value is reported as 0.94 wt. %. In data set [3] (listed as solid form 14-A), the “reversibility of the DVS mass change” value is listed as “appears to be reversible”. Besides, in data set [4], the “Stability 7-day slurry” value is given as “Stable”. In addition, the “stability slurrying 7 days in EtOAc” value in data set [4] (listed as solid form 14-A) is “stable”. The “stability slurrying 7 days in EtOH” value in data set [4] (listed as solid form 14-A) is “stable”. In addition, the “stability slurrying 7 days in EtOH:water (95:5 vol)” value in data set [4] (listed as solid form 14-A) was “stable”. For the same compound, the “reduction (HPLC purity) after 7 days slurry” value in data set [4] (materials isolated from EtOAc) is 0.07%. Moreover, the solubility was 1.76 mg/mL (≈ 3300 µM) in data set [5] (fasted state simulated gastric fluid, fassgf or other biorelevant, read-out: Solubility in fasted state simulated gastric fluid) and 0.49 mg/mL (≈ 918 µM) in data set [5] (fed state simulated intestinal fluid, fessif, read-out: Solubility in fed state simulated intestinal fluid). Also, the “residual solid after solubility test” value was “amorphous” in data set [5] (fasted state simulated gastric fluid, listed as solid form 14-A); “pralsetinib freebase solid form A” in data set [5] (fasted state simulated intestinal fluid); “amorphous” in data set [5] (fed state simulated intestinal fluid); “XRPD Pattern 14-A” in data set [5] (water). Further, the “Solubility in fasted state simulated intestinal fluid” value in data set [5] (listed as solid form 14-A) is given as 0.20 mg/mL (≈ 375 µM). Further, the Solubility in water in data set [5] (listed as solid form 14-A) is listed as 1.70 mg/mL (≈ 3190 µM). Besides, the “solubility in water” value in data set [5] (listed as solid form 14-A) is “high solubility”. The “stability of salt solid form to humidification” value (“stability … to humidification” below) in data set [6] (listed as Pattern 14-A), in data set [6] (listed as phosphate 14-A) and in data set [6] (listed as solid form 14-A) was “stable” in each case. Also, the “stability of salt solid form to drying” value in data set [6] (listed as Pattern 14-A), in data set [6] (listed as phosphate 14-A) and in data set [6] (listed as solid form 14-A) was “stable” throughout. In data set [7] (XRPD pattern after exposure, listed as Phosphate 14-A), the “Stability 40° C./75% RH” value is reported as “Stable”. Also, the “stability on exposure to 75% relative humidity at 40° C.” value in data set [7] (listed as solid form 14-A) was “stable”.

Take `CO[C@]1(C(=O)N[C@@H](C)c2ccc(-n3cc(F)cn3)nc2)CC[C@H](c2nc(C)cc(Nc3cc(C)[nH]n3)n2)CC1` [Solid Form 15-A, pralsetinib]: the “mass change by DVS” value in data set [3] (between 2% and 90% relative humidity, listed as solid form 15-A) was found to be 3.4 wt. %. The “mass change by DVS” value in data set [3] (between 15% and 75% relative humidity, listed as solid form 15-A) stood at 1.9 wt. %. Besides, the “DVS Mass Change” value in data set [3] (listed as Succinate 15-A) is given as 3.40 wt. %. Further, in data set [3] (listed as solid form 15-A), the “reversibility of the DVS mass change” value is recorded as “appears to be reversible”. In addition, in data set [4] (listed as Solid form 15-A), the “stability slurrying 7 days in EtOAc” value is given as “stable”, the “stability slurrying 7 days in EtOH” value is “stable” and the “stability slurrying 7 days in EtOH:water (95:5 vol)” value is on record as “converted to Pattern 15-C”. Besides, in data set [4] (EtOH:water (95:5 vol) slurry), the “reduction in purity after 7 days slurry” value was 0.13%. Moreover, in data set [5], the “solubility in simulated gastric fluid” value is on record as “high solubility”. In data set [5] (fasted state simulated gastric fluid, listed as solid form 15-A), the “residual solid after solubility test” value is on record as “solid form 15-D”. Moreover, in data set [5] (listed as solid form 15-A), the “Solubility in fasted state simulated gastric fluid” value is 1.12 mg/mL (≈ 2100 µM), the “Solubility in fasted state simulated intestinal fluid” value is given as 0.02 mg/mL (≈ 37.5 µM), the “Solubility in fed state simulated intestinal fluid” value was 0.84 mg/mL (≈ 1570 µM) and the Solubility in water is reported as 0.45 mg/mL (≈ 843 µM). Also, the “stability … to humidification” value in data set [6] (listed as Pattern 15-A) is given as “stable”. Further, in data set [6] (listed as succinate 15-A), the “stability … to humidification” value is on record as “stable” and the “stability of salt solid form to drying” value is given as “stable”. Further, the “stability on exposure to 75% relative humidity at 40° C.” value in data set [7] (listed as Solid form 15-A) is “converted to Pattern 15-A+B”.

Turning to `CO[C@]1(C(=O)N[C@@H](C)c2ccc(-n3cc(F)cn3)nc2)CC[C@H](c2nc(C)cc(Nc3cc(C)[nH]n3)n2)CC1` [Solid Form D, pralsetinib], in data set [8], the “behaviour sitting in atmosphere” value was “converted to other solid forms” and the behaviour upon drying entry is “converted to solid form B”.

As to `CO[C@]1(C(=O)N[C@@H](C)c2ccc(-n3cc(F)cn3)nc2)CC[C@H](c2nc(C)cc(Nc3cc(C)[nH]n3)n2)CC1` [Solid Form I, pralsetinib], the behaviour upon drying result in data set [8] (listed as Pattern I) is on record as “lost crystallinity”.

As to `CO[C@]1(C(=O)N[C@@H](C)c2ccc(-n3cc(F)cn3)nc2)CC[C@H](c2nc(C)cc(Nc3cc(C)[nH]n3)n2)CC1` [Solid Form J, pralsetinib], the behaviour upon drying entry in data set [8] was “unstable and quickly converted to amorphous”; in data set [8] (listed as Pattern J), “either lost crystallinity or became amorphous”.

On to `CO[C@]1(C(=O)N[C@@H](C)c2ccc(-n3cc(F)cn3)nc2)CC[C@H](c2nc(C)cc(Nc3cc(C)[nH]n3)n2)CC1` [Solid Form K, pralsetinib], for which, in data set [8], the behaviour upon drying entry is “unstable on drying and converted to material characterized by XRPD Pattern M”.

In the case of `CO[C@]1(C(=O)N[C@@H](C)c2ccc(-n3cc(F)cn3)nc2)CC[C@H](c2nc(C)cc(Nc3cc(C)[nH]n3)n2)CC1` [Solid Form L, pralsetinib], the behaviour upon drying result in data set [8] (listed as Pattern L) is “stable”.

On to `CO[C@]1(C(=O)N[C@@H](C)c2ccc(-n3cc(F)cn3)nc2)CC[C@H](c2nc(C)cc(Nc3cc(C)[nH]n3)n2)CC1` [Solid Form P, pralsetinib], for which the behaviour upon drying result in data set [8] is “unstable upon drying and converted to a mixture of material characterized by XRPD Pattern P and XRPD Pattern L and extra peaks”.

Consider `CO[C@]1(C(=O)N[C@@H](C)c2ccc(-n3cc(F)cn3)nc2)CC[C@H](c2nc(C)cc(Nc3cc(C)[nH]n3)n2)CC1` [Solid Form Q, pralsetinib], for which the behaviour upon drying entry in data set [8] is listed as “lost crystallinity”.
